Measured values published in patent US5900488A, “Method for treating mycosis using imidazolylacetonitrile derivatives” (Nihon Nohyaku Co., Ltd., priority 1995, dated 1999).
Values after ≈ are worked out from the molar mass of the structure shown. “Also recorded” adds a separate entry of the source. Where two headings read alike, the source gives them in different places.

Legend:
[1] = system: trichophyton mentagrophytes TIMM 2789; test: Therapeutic efficacy on experimental tinea pedis in guinea pigs (Test Example 2); format: in vivo
Experimental: Male Hartley guinea pigs (Japan SLC Inc.) weighing 400 to 620 g were used for the infection study. One side of a paper disc (1.5 mm thick×8 mm diameter) was covered with a piece of aluminum foil while the other side was free to carry the inoculum suspension. The disc was immersed with 50 μl of the inoculum suspension (trichophyton mentagrophytes TIMM 2789, 1×10^8 conidia/ml), and was then fixed on the planta pedis of animal feet with an adhesive elastic tape. The disc was removed on the seventh day postinfection. Each agent dissolved in PEG 400 (0.1 ml/locus) was topically applied to the whole soles of guinea pigs once a day for 3 consecutive days, starting on the 10th day postinfection. Five days after the last treatment, the skin tissue from each planta pedis and the corresponding tarsus of all animals was cut into small blocks (about 2×2 mm). Ten skin blocks obtained from each part of the foot were implanted on a Sabouraud's glucose agar plate containing antibiotics, and were cultured at 27° C. for 14 days. The skin blocks yielding fungal growth were regarded as culture-positive, and the foot (planta pedis plus tarsus) with more than one culture-positive skin block was considered fungus-positive. In addition, the intensity of infection was assessed by the scores based on the number of culture-positive skin blocks. Namely, +10, +9, +8, +7, +6, +5, +4, +3, +2, +1 or 0 was given as the score according to the corresponding number of culture-positive skin blocks out of ten skin blocks studied. Statistical analyses for the rate of fungus-positive feet and the average intensity of infection were assessed by Fisher's exact probably test and Mann-Whitney's U-test, respectively.

dermatophytes = test: Antifungal activity against dermatophytes compared with racemic mixtures (general statement); conditions: especially highly sensitive strains
Trichophyton rubrum = test: In vitro activity against Trichophyton rubrum, MIC by twofold macro-broth dilution (Test Example 1); format: cell-based
Experimental: (§1) Minimum inhibitory concentrations (MICs) were determined by the twofold macro-broth dilution method with Sabouraud's glucose broth which constituted with 1% bactopeptone and 4% glucose. To each tube containing 9.8 ml of the broth, 0.1 ml of each testing compound dissolved in DMSO and 0.1 ml of a conidial suspension (1×10^6 conidia/ml) were added. The fungal growth was observed after incubation for 7 days at 27° C. The MIC was determined as the lowest drug concentration which prevented a visible fungal growth.

[2] = system: Trichophyton mentagrophytes; test: In vitro activity against Trichophyton mentagrophytes, MIC by twofold macro-broth dilution (Test Example 1); format: cell-based; conditions: for MIC: Trichophyton mentagrophytes, 7 days at 27° C.
Experimental: as §1

Aspergillus fumigatus = test: In vitro antifungal activity against Aspergillus fumigatus, MIC by twofold agar dilution (Test Example 4); format: cell-based; conditions: read-out: MIC
Experimental: MICs were determined by the twofold agar dilution method with casitone agar which constituted with 0.9% bactocasitone, 1% bacto-yeast extract, 2% glucose, 0.1% KH2 PO4, 0.1% Na2 HPO4, 1% Na3 C6 H5 O7 and 1.6% agar. A loopful of each inoculum (1×10^6 conidia/ml) was streaked onto the agar plate containing a compound, and a fungal growth was observed after incubation for 48 hours at 35° C. The MIC was determined as the lowest drug concentration which prevented a visible fungal growth.

Candida albicans = test: In vitro antifungal activity against Candida albicans, MIC by twofold micro-broth dilution (Test Example 3); format: cell-based; conditions: 48 hours at 35° C., pH 7.0, read-out: MIC
Experimental: MICs were determined by the twofold micro-broth dilution method with RPMI 1640 buffered with morphorino-propanesulfonic acid to a final molarity of 0.165M (pH 7.0). One hundred μl of a yeast cell suspension (1 to 5×10^3 cells/ml) and 100 μl of the compound-containing medium were pipetted into each well flat-bottomed microtiter plates. After incubation for 48 hours at 35° C., the turbidity of each well was measured at 630 nm.

[3] = 0.5% in PEG 400, topical once a day for 3 days, p < 0.01 vs untreated and PEG 400 control
[4] = 1% in PEG 400, topical once a day for 3 days, p < 0.01 vs untreated and PEG 400, Compound (A) also p < 0.05 vs 1% Racemic Compound (A)
[5] = 1% in PEG 400, topical once a day for 3 days, p < 0.01 vs untreated and PEG 400 control

## N#C/C(=C1/SC[C@@H](c2ccccc2Cl)S1)n1ccnc1 [Compound (A), R-(+)-(E)-[4-(2-chlorophenyl)-1,3-dithiolan-2-ylidene]-1-imidazolylacetonitrile]
[1]; 0.5% Compound (A) vs 1% Racemic Compound (A)
  effect relative to 1% Racemic Compound (A): twice; also recorded: more than twice
[1]; [3]
  Average intensity of infection, planta pedis (score 0 to +10): +0.3
  Average intensity of infection, tarsus (score 0 to +10): 0
  Fungus-positive rate (%): 20%
  Fungus-positive rate: The number of positive feet/The total number of feet: 2/10
[1]; [4]
  Fungus-positive rate (%): 0%
  Fungus-positive rate: The number of positive feet/The total number of feet: 0/10
[1]; [5]
  Average intensity of infection, planta pedis (score 0 to +10): 0
  Average intensity of infection, tarsus (score 0 to +10): 0
[1]; 1% treated group
  curative effect (in words): mycologically complete healing
[1]; at the same concentration
  curative effect compared with Racemic Compound (A): markedly higher
dermatophytes
  antifungal activity relative to the racemic mixtures: several times
Trichophyton rubrum
  sensitivity (in words): highly sensitive
Trichophyton rubrum; IFO5467, 168 h, strain IFO 5467, 7 days at 27° C.
  MIC: 1.3 ng/mL (≈ 0.00406 µM)
Trichophyton rubrum; IFO5807, 168 h, strain IFO 5807, 7 days at 27° C.
  MIC: 2.5 ng/mL (≈ 0.00782 µM)
Trichophyton rubrum; IFO5808, 168 h, strain IFO 5808, 7 days at 27° C.
  MIC: 2.5 ng/mL (≈ 0.00782 µM)
Trichophyton rubrum; IFO6203, 168 h, strain IFO 6203, 7 days at 27° C.
  MIC: 2.5 ng/mL (≈ 0.00782 µM)
Trichophyton rubrum; IFO6204, 168 h, strain IFO 6204, 7 days at 27° C.
  MIC: 2.5 ng/mL (≈ 0.00782 µM)
Trichophyton rubrum; IFO9185, 168 h, strain IFO 9185, 7 days at 27° C.
  MIC: 1.3 ng/mL (≈ 0.00406 µM)
Trichophyton rubrum; TIMM1822, 168 h, strain TIMM 1822, 7 days at 27° C.
  MIC: 1.3 ng/mL (≈ 0.00406 µM)
Trichophyton rubrum; TIMM1823, 168 h, strain TIMM 1823, 7 days at 27° C.
  MIC: 2.5 ng/mL (≈ 0.00782 µM)
Trichophyton rubrum; TIMM1824, 168 h, strain TIMM 1824, 7 days at 27° C.
  MIC: 1.3 ng/mL (≈ 0.00406 µM)
Trichophyton rubrum; TIMM1830, 168 h, strain TIMM 1830, 7 days at 27° C.
  MIC: 0.63 ng/mL (≈ 0.00197 µM)
[2]; MIC for T. mentagrophytes TIMM 2789
  in vitro antifungal activity relative to Racemic Compound (A): 4 times
[2]; IFO5466, 168 h, strain IFO 5466
  MIC: 20 ng/mL (≈ 0.0625 µM)
[2]; IFO5809, 168 h, strain IFO 5809
  MIC: 5 ng/mL (≈ 0.0156 µM)
[2]; IFO5810, 168 h, strain IFO 5810
  MIC: 5 ng/mL (≈ 0.0156 µM)
[2]; IFO5811, 168 h, strain IFO 5811
  MIC: 20 ng/mL (≈ 0.0625 µM)
[2]; IFO5929, 168 h, strain IFO 5929
  MIC: 10 ng/mL (≈ 0.0313 µM)
[2]; TIMM1189, 168 h, strain TIMM 1189
  MIC: 10 ng/mL (≈ 0.0313 µM)
[2]; TIMM1814, 168 h, strain TIMM 1814
  MIC: 20 ng/mL (≈ 0.0625 µM)
[2]; TIMM1815, 168 h, strain TIMM 1815
  MIC: 20 ng/mL (≈ 0.0625 µM)
[2]; TIMM1817, 168 h, strain TIMM 1817
  MIC: 20 ng/mL (≈ 0.0625 µM)
[2]; TIMM2789, 168 h, strain TIMM 2789
  MIC: 5 ng/mL (≈ 0.0156 µM)
Aspergillus fumigatus; TIMM0063, strain TIMM 0063, 48 hours at 35° C.
  MIC: 0.63 ng/mL (≈ 0.00197 µM)
Aspergillus fumigatus; TIMM0078, strain TIMM 0078, 48 hours at 35° C.
  MIC: 0.63 ng/mL (≈ 0.00197 µM)
Aspergillus fumigatus; TIMM1728, strain TIMM 1728, 48 hours at 35° C.
  MIC: 1.3 ng/mL (≈ 0.00406 µM)
Aspergillus fumigatus; TIMM1767, strain TIMM 1767, 48 hours at 35° C.
  MIC: 1.3 ng/mL (≈ 0.00406 µM)
Candida albicans; IFO0197, strain IFO 0197, 80% inhibition
  MIC: 62.5 ng/mL (≈ 0.195 µM)
Candida albicans; IFO0579, strain IFO 0579, 80% inhibition
  MIC: 31.3 ng/mL (≈ 0.0979 µM)
Candida albicans; IFO1269, strain IFO 1269, 80% inhibition
  MIC: 62.5 ng/mL (≈ 0.195 µM)
Candida albicans; IFO1270, strain IFO 1270, 80% inhibition
  MIC: 250 ng/mL (≈ 0.782 µM)
Candida albicans; IFO1385, strain IFO 1385, 80% inhibition
  MIC: 62.5 ng/mL (≈ 0.195 µM)
Candida albicans; IFO1386, strain IFO 1386, 80% inhibition
  MIC: 125 ng/mL (≈ 0.391 µM)
Candida albicans; TIMM3163, strain TIMM 3163, 80% inhibition
  MIC: 4000 ng/mL (≈ 12.5 µM)
Candida albicans; TIMM3164, strain TIMM 3164, 80% inhibition
  MIC: 250 ng/mL (≈ 0.782 µM)
Candida albicans; TIMM3165, strain TIMM 3165, 80% inhibition
  MIC: 2000 ng/mL (≈ 6.25 µM)
Candida albicans; TIMM3166, strain TIMM 3166, 80% inhibition
  MIC: 1000 ng/mL (≈ 3.13 µM)
